Assay results: patent US20240280493A1, “CELLULAR SENSORS BASED ON SURFACE-ENHANCED RAMAN SCATTERING AND APPLICATION THEREOF” (CHINA PHARMACEUTICAL UNIVERSITY, priority 2022, published 2024)

System: γH2AX
Test: Impurity genotoxicity assessment with the SERS cell-based sensor (L02 cells, Anti γH2AX@GPMT probe), fold of induction of γH2AX
Conditions: 24 h incubation, MMS 50 μg/ml, SA 50 μg/ml, 5-Fu 0.1 μg/ml, NDEA 500 μg/ml, FI > 1.5 judged genotoxic
Protocol: A human liver cell line L02 is cultured in DMEM containing 10% fetal calf serum, and put in a 37° C. incubator containing 5% CO2, and a sterile operation is performed in an entire process. When the cells grow to a logarithmic phase, L02 is inoculated into a 24-well plate containing a cell slide according to a density of 5000 cells/well, after being attached to a wall, a culture medium is replaced by a SERS probe culture medium with a concentration being 0.05 nM, and incubation is performed for 4 h.
The cell-based sensor culture medium is replaced by a culture medium containing impurities of different concentrations, continuous incubation is performed for 24 h, then the slide is taken out and put in a confocal inverted microscope bright and dark field imaging Raman spectrometer to be tested, the Raman signals of the test group and the control group are compared, and the impurity genotoxicity is assessed.
Methyl methanesulfonate (MMS), a salicylic acid (SA), 5-fluorouracil (5-Fu) and N-nitrosodiethylamine (NDEA) are selected respectively as genotoxic impurities of different structure types to be tested. […]

CCN(CC)N=O [NDEA, N-nitrosodiethylamine]
FI value (fold of induction, concentration ratio of effector molecules of test group and control group): 3.59

O=C(O)c1ccccc1O [SA, salicylic acid]
FI value (fold of induction, concentration ratio of effector molecules of test group and control group): 1.02
